Measurements taken from patent US9994587B2, “HIV protease inhibitors” (priority 2014, dated 2018).
pIC50: −log10 of the molar value.

Target: T1, wildtype HIV-1 protease (Human immunodeficiency virus type 1 group M subtype B, UniProt P04585)
T1 construct: preincubated with the HIV-1 protease (wild type) enzyme in assay buffer; made in house; host or cells: Escherichia coli
Experiment: Assay for inhibition of microbial expressed HIV protease (Pepcleav)
Type: biochemical
Details: wild type HIV-1 protease 20 pM, peptide substrate 400 micromolar, pH 5.5; mean of at least two independent experiments
Description: Assay for Inhibition of Microbial Expressed HIV Protease (“Pepcleav”)
Studies of the inhibition of the wildtype HIV-1 protease (which was expressed in Escherichia coli) were carried out with a peptide substrate [Val-Ser-Gln-Asn-(βnaphtyl)Ala-Pro-Ile-Val (SEQ ID NO 1)]. The inhibitor was first preincubated with the HIV-1 protease (wild type) enzyme in assay buffer (50 mM sodium acetate, pH 5.5, 100 mM NaCl, and 0.1% BSA) for 30 minutes at room temperature. Substrate was added to 400 micromolar in a total volume of 20 microliters containing 20 picomolar HIV-1 protease (final) and the reaction is incubated for 1 hour at 30° C. The reaction was quenched with the addition of formic acid and indinavir to 0.012% and 150 nM final concentrations, respectively. Product formation was determined after separation of product and substrate on a Zorbax Eclipse XDB-C18 column connected to an API 4000 mass spectrometer (Applied Biosystems) with multiple reaction monitoring (transitions were 644.5/428.9 and 615.4/422.2 (M1/M3) for product and indinavir respectively). The extent of inhibition of the reaction was determined from the peak area of the products.

| Structure (SMILES) | pIC50 |
| --- | --- |
| COC(=O)N[C@H](C(=O)Nc1ccccc1CC[C@@H]1CNC[C@@H](CSc2cccc(C#N)c2)O1)C(c1ccccc1)c1ccccc1 [Example 24, methyl N-[(1S)-1-benzhydryl-2-[[2-[2-[(2R,6S)-6-[(3-cyanophenyl)sulfanylmethyl]morpholin-2-yl]ethyl]phenyl]amino]-2-oxo-ethyl]carbamate] | 8.68 |
| COC(=O)N[C@H](C(=O)Nc1ccccc1CC[C@@H]1CNC[C@@H](CSc2ccc(Cl)cc2Cl)O1)C(c1ccccc1)c1ccccc1 [Example 25, methyl N-[(1S)-1-benzhydryl-2-[[2-[2-[(2R,6S)-6-[(2,4-dichlorophenyl)sulfanylmethyl]morpholin-2-yl]ethyl]phenyl]amino]-2-oxo-ethyl]carbamate] | 8.82 |
| COC(=O)N[C@H](C(=O)Nc1ccccc1CC[C@@H]1CNC[C@@H](CSc2ccc(Cl)cc2C)O1)C(c1ccccc1)c1ccccc1 [Example 26, methyl N-[(1S)-1-benzhydryl-2-[[2-[2-[(2R,6S)-6-[(4-chloro-2-methyl-phenyl)sulfanylmethyl]morpholin-2-yl]ethyl]phenyl]amino]-2-oxo-ethyl]carbamate] | 8.89 |
| COC(=O)N[C@H](C(=O)Nc1ccccc1CC[C@@H]1CNC[C@@H](CSc2ccc(Br)cc2F)O1)C(c1ccccc1)c1ccccc1 [Example 27, methyl N-[(1S)-1-benzhydryl-2-[[2-[2-[(2R,6S)-6-[(4-bromo-2-fluoro-phenyl)sulfanylmethyl]morpholin-2-yl]ethyl]phenyl]amino]-2-oxo-ethyl]carbamate] | 9.28 |
| COC(=O)N[C@H](C(=O)Nc1ccccc1CC[C@@H]1CNC[C@@H](COc2ccc(S(C)(=O)=O)cc2C)O1)C(c1ccccc1)c1ccccc1 [Example 28, methyl N-[(1S)-1-benzhydryl-2-[[2-[2-[(2R,6S)-6-[(2-methyl-4-methylsulfonyl-phenoxy)methyl]morpholin-2-yl]ethyl]phenyl]amino]-2-oxo-ethyl]carbamate] | 7.74 |
| COC(=O)N[C@H](C(=O)Nc1ccccc1CC[C@@H]1CNC[C@@H](COc2ccc(C#N)cc2C)O1)C(c1ccccc1)c1ccccc1 [Example 29, methyl N-[(1S)-1-benzhydryl-2-[[2-[2-[(2R,6S)-6-[(4-cyano-2-methyl-phenoxy)methyl]morpholin-2-yl]ethyl]phenyl]amino]-2-oxo-ethyl]carbamate] | 7.77 |
| COC(=O)N[C@H](C(=O)Nc1ccccc1CC[C@@H]1CNC[C@@H](COc2cccc3[nH]ccc23)O1)C(c1ccccc1)c1ccccc1 [Example 30, methyl N-[(1S)-1-benzhydryl-2-[[2-[2-[(2R,6S)-6-(1H-indol-4-yloxymethyl)morpholin-2-yl]ethyl]phenyl]amino]-2-oxo-ethyl]carbamate] | 6.89 |
| COC(=O)N[C@H](C(=O)Nc1ccccc1CC[C@@H]1CNC[C@@H](COc2cccc3c2CCC3)O1)C(c1ccccc1)c1ccccc1 [Example 31, methyl N-[(1S)-1-benzhydryl-2-[[2-[2-[(2R,6S)-6-(indan-4-yloxymethyl)morpholin-2-yl]ethyl]phenyl]amino]-2-oxo-ethyl]carbamate] | 7.44 |
| COC(=O)N[C@H](C(=O)Nc1ccccc1CC[C@@H]1CNC[C@@H](CSc2nnc(Cc3csc(C)n3)o2)O1)C(c1ccccc1)c1ccccc1 [Example 32, methyl N-[(1S)-1-benzhydryl-2-[[2-[2-[(2R,6S)-6-[[5-[(2-methylthiazol-4-yl)methyl]-1,3,4-oxadiazol-2-yl]sulfanylmethyl]morpholin-2-yl]ethyl]phenyl]amino]-2-oxo-ethyl]carbamate] | 8.10 |
| COC(=O)N[C@H](C(=O)Nc1ccccc1CC[C@@H]1CNC[C@@H](CSc2nnc(Cn3nccc3C)o2)O1)C(c1ccccc1)c1ccccc1 [Example 33, methyl N-[(1S)-1-benzhydryl-2-[[2-[2-[(2R,6S)-6-[[5-[(5-methylpyrazol-1-yl)methyl]-1,3,4-oxadiazol-2-yl]sulfanylmethyl]morpholin-2-yl]ethyl]phenyl]amino]-2-oxo-ethyl]carbamate] | 9.17 |
| COC(=O)N[C@H](C(=O)Nc1ccccc1CC[C@@H]1CNC[C@@H](CSc2nnc(-c3ccncc3)o2)O1)C(c1ccccc1)c1ccccc1 [Example 34, methyl N-[(1S)-1-benzhydryl-2-oxo-2-[[2-[2-[(2R,6S)-6-[[5-(4-pyridyl)-1,3,4-oxadiazol-2-yl]sulfanylmethyl]morpholin-2-yl]ethyl]phenyl]amino]ethyl] carbamate] | 9.38 |
| COC(=O)N[C@H](C(=O)Nc1ccccc1CC[C@@H]1CNC[C@@H](CSc2ncnc3[nH]ncc23)O1)C(c1ccccc1)c1ccccc1 [Example 35, methyl N-[(1S)-1-benzhydryl-2-oxo-2-[[2-[2-[(2R,6S)-6-(1H-pyrazolo[3,4-d]pyrimidin-4-ylsulfanylmethyl)morpholin-2-yl]ethyl]phenyl]amino]ethyl] carbamate] | 8.68 |
| COC(=O)N[C@H](C(=O)Nc1ccccc1CC[C@@H]1CNC[C@@H](CSc2ncnc3c2cnn3C)O1)C(c1ccccc1)c1ccccc1 [Example 36, methyl N-[(1S)-1-benzhydryl-2-[[2-[2-[(2R,6S)-6-[(1-methylpyrazolo[3,4-d]pyrimidin-4-yl)sulfanylmethyl]morpholin-2-yl]ethyl]phenyl]amino]-2-oxo-ethyl]carbamate] | 9.03 |
| COC(=O)N[C@H](C(=O)Nc1ccccc1CC[C@@H]1CNC[C@@H](COc2cccc3cc[nH]c23)O1)C(c1ccccc1)c1ccccc1 [Example 38, N-[2-(2-{(2R,6S)-6-[(1H-indol-7-yloxy)methyl]morpholin-2-yl}ethyl)phenyl]-Na-(methoxycarbonyl)-b-phenyl-L-phenylalaninamide] | 6.62 |
| COC(=O)N[C@H](C(=O)Nc1ccccc1CC[C@@H]1CNC[C@@H](COc2ccc3cc[nH]c3c2)O1)C(c1ccccc1)c1ccccc1 [Example 39, N-[2-(2-{(2R,6S)-6-[(1H-indol-6-yloxy)methyl]morpholin-2-yl}ethyl)phenyl]-Na-(methoxycarbonyl)-b-phenyl-L-phenylalaninamide] | 7.00 |
| COC(=O)N[C@H](C(=O)Nc1ccccc1CC[C@@H]1CNC[C@@H](COc2cccc3nn[nH]c23)O1)C(c1ccccc1)c1ccccc1 [Example 40, N-[2-(2-{(2R,6S)-6-[(1H-benzotriazol-7-yloxy)methyl]morpholin-2-yl}ethyl)phenyl]-Na-(methoxycarbonyl)-b-phenyl-L-phenylalaninamide] | 7.17 |
| COC(=O)N[C@H](C(=O)Nc1ccccc1CC[C@@H]1CNC[C@@H](COc2cccc3cn[nH]c23)O1)C(c1ccccc1)c1ccccc1 [Example 41, N-[2-(2-{(2R,6S)-6-[(1H-indazol-7-yloxy)methyl]morpholin-2-yl}ethyl)phenyl]-Na-(methoxycarbonyl)-b-phenyl-L-phenylalaninamide] | 7.59 |
| COC(=O)N[C@H](C(=O)Nc1ccccc1CC[C@@H]1CNC[C@@H](CSc2cccc3ncccc23)O1)C(c1ccccc1)c1ccccc1 [Example 42, methyl [(2S)-1-oxo-3,3-diphenyl-1-{[2-(2-{(2R,6S)-6-[(quinolin-5-ylsulfanyl)methyl]morpholin-2-yl}ethyl)phenyl]amino}propan-2-yl]carbamate] | 9.03 |
